Assay results taken from patent publication US10807952B2 (Achillion Pharmaceuticals, Inc., priority 2015, dated 2020).

molecular target: Human Factor D (Homo sapiens (Human), UniProt P00746); assay: Human Factor D assay (Z-L-Lys-SBzl / DTNB, absorbance at 405 nm); assay type: biochemical; details: Table 3; Human Factor D 80 nM, assay of Example 13
Description: Human Factor D (purified from human serum, Complement Technology, Inc.) at 80 nM final concentration was incubated with test compound at various concentrations for 5 minutes at room temperature in 50 mM Tris, 1M NaCl, pH 7.5. A synthetic substrate Z-L-Lys-SBzl and DTNB (Ellman's reagent) were added to final concentrations of 100 μM each. […] IC50 values were calculated by nonlinear regression of complement Factor D reaction rates as a function of test compound concentration.

Sequence of Human Factor D (P00746 26-253): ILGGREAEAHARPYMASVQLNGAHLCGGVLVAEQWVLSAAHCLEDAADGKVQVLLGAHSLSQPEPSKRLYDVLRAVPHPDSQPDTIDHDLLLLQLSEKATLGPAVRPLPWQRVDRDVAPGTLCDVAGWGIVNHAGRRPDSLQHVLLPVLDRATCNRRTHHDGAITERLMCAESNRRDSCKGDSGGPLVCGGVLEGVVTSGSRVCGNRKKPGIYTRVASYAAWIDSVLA

Row | Compound | IC50 [nM]
1 | CC(=O)c1cn(CC(=O)N2C[C@H](F)C[C@H]2C(=O)Nc2cccc(-c3ccc4[nH]cnc4c3Cl)c2F)c2ccccc12 [Compound 2, (2S,4R)-1-(2-(3-acetyl-1H-indol-1-yl)acetyl)-N-(3-(4-chloro-1H-benzo[d]imidazol-5-yl)-2-fluorophenyl)-4-fluoropyrrolidine-2-carboxamide] | < 1000
2 | CC(=O)c1nn(CC(=O)N2C[C@H](F)C[C@H]2C(=O)Nc2cccc(-c3ccc4[nH]cnc4c3Cl)c2F)c2ccccc12 [Compound 3, (2S,4R)-1-(2-(3-acetyl-1H-indazol-1-yl)acetyl)-N-(3-(4-chloro-1H-benzo[d]imidazol-5-yl)-2-fluorophenyl)-4-fluoropyrrolidine-2-carboxamide] | < 1000
3 | CC(=O)c1nn(CC(=O)N2[C@@H]3C[C@@H]3C[C@H]2C(=O)Nc2cccc(-c3ccc4[nH]cnc4c3Cl)c2F)c2ccccc12 [Compound 5, (1R,3S,5R)-2-(2-(3-acetyl-1H-indazol-1-yl)acetyl)-N-(3-(4-chloro-1H-benzo[d]imidazol-5-yl)-2-fluorophenyl)-2-azabicyclo[3.1.0]hexane-3-carboxamide] | < 1000
4 | NC(=O)c1nn(CC(=O)N2C[C@H](F)C[C@H]2C(=O)Nc2cccc(-c3ccc4[nH]cnc4c3)c2F)c2ccccc12 [Compound 6, 1-(2-((2S,4R)-2-(3-(1H-benzo[d]imidazol-5-yl)-2-fluorophenyl-carbamoyl)-4-fluoropyrrolidin-1-yl)-2-oxoethyl)-1H-indazole-3-carboxamide] | < 1000
5 | CC(=O)c1cn(CC(=O)N[C@H](C(=O)Nc2cccc(-c3ccccc3Cl)c2F)[C@@H](C)O)c2ccccc12 [Compound 7, (2S,3R)-2-(2-(3-Acetyl-1H-indol-1-yl)acetamido)-N-(2′-chloro-2-fluorobiphenyl-3-yl)-3-hydroxybutanamide] | < 1000
6 | CO/N=C(\C)c1ccc(Cl)c(-c2cccc(NC(=O)[C@@H]3C[C@@H](F)CN3C(=O)Cn3nc(C(N)=O)c4ccccc43)c2F)c1 [Compound 8, 1-(2-((2S,4R)-2-((2′-Chloro-2-fluoro-5′-((E)-1-(methoxyimino)ethyl)-[1,1′-biphenyl]-3-yl)carbamoyl)-4-fluoropyrrolidin-1-yl)-2-oxoethyl)-1H-indazole-3-carboxamide] | < 1000
7 | NC(=O)c1nn(CC(=O)N2C[C@H](F)C[C@H]2C(=O)Nc2cccc(-c3ccc4[nH]c(C(F)(F)F)nc4c3Cl)c2F)c2ccccc12 [Compound 9, 1-(2-((2S,4R)-2-(3-(4-chloro-2-(trifluoromethyl)-1H-benzo[d]imidazol-5-yl)-2-fluorophenyl-carbamoyl)-4-fluoropyrrolidin-1-yl)-2-oxoethyl)-1H-indazole-3-carboxamide] | < 1000
8 | Cc1nc2cc(-c3cccc(NC(=O)[C@@H]4C[C@@H](F)CN4C(=O)Cn4nc(C(N)=O)c5ccccc54)c3F)ccc2[nH]1 [Compound 10] | < 1000
9 | NC(=O)c1nn(CC(=O)N2C[C@H](F)C[C@H]2C(=O)Nc2cccc(-c3ccc4[nH]c(=O)[nH]c4c3Cl)c2F)c2ccccc12 [Compound 11, 1-(2-((2S,4R)-2-((3-(4-Chloro-2-oxo-2,3-dihydro-1H-benzo[d]imidazol-5-yl)-2-fluorophenyl)carbamoyl)-4-fluoropyrrolidin-1-yl)-2-oxoethyl)-1H-indazole-3-carboxamide] | < 1000
10 | Cc1nc2c(Cl)c(-c3cccc(NC(=O)[C@@H]4C[C@@H](F)CN4C(=O)Cn4nc(C(N)=O)c5ccccc54)c3F)ccc2[nH]1 [Compound 12, 1-(2-((2S,4R)-2-(3-(4-chloro-2-methyl-1H-benzo[d]imidazol-5-yl)-2-fluorophenyl-carbamoyl)-4-fluoropyrrolidin-1-yl)-2-oxoethyl)-1H-indazole-3-carboxamide] | < 1000
11 | N#Cc1n[nH]c2ccc(-c3cccc(NC(=O)[C@@H]4C[C@@H](F)CN4C(=O)Cn4nc(C(N)=O)c5ccccc54)c3F)cc12 [Compound 13, 1-(2-((2S,4R)-2-(3-(3-cyano-1H-indazol-5-yl)-2-fluorophenyl-carbamoyl)-4-fluoropyrrolidin-1-yl)-2-oxoethyl)-1H-indazole-3-carboxamide] | < 1000
12 | C[C@H](O)c1nc2c(Cl)c(-c3cccc(NC(=O)[C@@H]4C[C@@H](F)CN4C(=O)Cn4nc(C(N)=O)c5ccccc54)c3F)ccc2[nH]1 [Compound 14, 1-(2-((2S,4R)-2-((3-(7-Chloro-2-((S)-1-hydroxyethyl)-1H-benzo[d]imidazol-6-yl)-2-fluorophenyl)carbamoyl)-4-fluoropyrrolidin-1-yl)-2-oxoethyl)-1H-indazole-3-carboxamide] | < 1000
13 | CC(=O)c1cn(CC(=O)N(C)[C@H](C(=O)Nc2cccc(-c3ccccc3Cl)c2F)[C@@H](C)O)c2ccccc12 [Compound 15, (2S,3R)-2-(2-(3-acetyl-1H-indol-1-yl)-N-methylacetamido)-N-(2′-chloro-2-fluorobiphenyl-3-yl)-3-hydroxybutanamide] | 1000 to 10000
14 | CC(=O)c1cn(CC(=O)N[C@H](C(=O)Nc2cccc(Br)n2)[C@@H](C)O)c2ccccc12 [Compound 16, (2S,3R)-2-(2-(3-acetyl-1H-indol-1-yl)acetamido)-N-(6-bromopyridin-2-yl)-3-hydroxybutanamide] | 1000 to 10000
15 | NC(=O)c1nn(CC(=O)N2C[C@H](F)C[C@H]2C(=O)Nc2cccc(-c3ccc4[nH]ncc4c3Cl)c2F)c2ccccc12 [Compound 17, 1-(2-((2S,4R)-2-(3-(4-chloro-1H-indazol-5-yl)-2-fluorophenyl-carbamoyl)-4-fluoropyrrolidin-1-yl)-2-oxoethyl)-1H-indazole-3-carboxamide] | < 1000
16 | CC(=O)c1nc2ccc(-c3cccc(NC(=O)[C@@H]4C[C@@H](F)CN4C(=O)Cn4nc(C(N)=O)c5ccccc54)c3F)c(Cl)c2[nH]1 [Compound 18, 1-(2-((2S,4R)-2-(3-(2-acetyl-7-chloro-1H-benzo[d]imidazol-6-yl)-2-fluorophenyl-carbamoyl)-4-fluoropyrrolidin-1-yl)-2-oxoethyl)-1H-indazole-3-carboxamide] | < 1000
17 | NC(=O)c1nn(CC(=O)N2C[C@H](F)C[C@H]2C(=O)Nc2cccc(-c3ccccc3Cl)c2F)c2cc(Cn3cc(C4CC4)nn3)sc12 [Compound 19, 1-(2-((2S,4R)-2-((2′-Chloro-2-fluoro-[1,1′-biphenyl]-3-yl)carbamoyl)-4-fluoropyrrolidin-1-yl)-2-oxoethyl)-5-((4-cyclopropyl-1H-1,2,3-triazol-1-yl)methyl)-1H-thieno[3,2-c]pyrazole-3-carboxamide] | < 1000
18 | Cn1cnc2c(Cl)c(-c3cccc(NC(=O)[C@@H]4C[C@@H](F)CN4C(=O)Cn4nc(C(N)=O)c5ccccc54)c3F)ccc21 [Compound 20, 1-(2-((2S,4R)-2-(3-(4-chloro-1-methyl-1H-benzo[d]imidazol-5-yl)-2-fluorophenyl-carbamoyl)-4-fluoropyrrolidin-1-yl)-2-oxoethyl)-1H-indazole-3-carboxamide] | < 1000
19 | NC(=O)c1cccc(CC(=O)N2C[C@H](F)C[C@H]2C(=O)Nc2cccc(-c3ccccc3Cl)c2F)c1 [Compound 21, (2S,4R)-1-(2-(3-carbamoylphenyl)acetyl)-N-(2′-chloro-2-fluorobiphenyl-3-yl)-4-fluoropyrrolidine-2-carboxamide] | < 1000
20 | NC(=O)c1cc(CC(=O)N2C[C@H](F)C[C@H]2C(=O)Nc2cccc(-c3ccccc3Cl)c2F)ccc1Cl [Compound 22, (2S,4R)-1-(2-(3-carbamoyl-4-chlorophenyl)acetyl)-N-(2′-chloro-2-fluorobiphenyl-3-yl)-4-fluoropyrrolidine-2-carboxamide] | 1000 to 10000
21 | N#Cc1cc(CC(=O)N2C[C@H](F)C[C@H]2C(=O)Nc2cccc(-c3ccccc3Cl)c2F)ccc1Cl [Compound 23, (2S,4R)-N-(2′-chloro-2-fluorobiphenyl-3-yl)-1-(2-(4-chloro-3-cyanophenyl)acetyl)-4-fluoropyrrolidine-2-carboxamide] | 1000 to 10000
22 | N#Cc1cccc(CC(=O)N2C[C@H](F)C[C@H]2C(=O)Nc2cccc(-c3ccccc3Cl)c2F)c1 [Compound 24, (2S,4R)-N-(2′-chloro-2-fluorobiphenyl-3-yl)-1-(2-(3-cyanophenyl)acetyl)-4-fluoropyrrolidine-2-carboxamide] | < 1000
23 | NC(=O)c1nn(CC(=O)N2C[C@H](F)C[C@H]2C(=O)Nc2cccc(-c3ccc4cc[nH]c4c3)c2F)c2ccccc12 [Compound 25, 1-(2-((2S,4R)-4-fluoro-2-(2-fluoro-3-(1H-indol-6-yl)phenylcarbamoyl)pyrrolidin-1-yl)-2-oxoethyl)-1H-indazole-3-carboxamide] | < 1000
24 | NC(=O)c1nn(CC(=O)N2C[C@H](F)C[C@H]2C(=O)Nc2cccc(-c3ccc4nc(N)[nH]c4c3Cl)c2F)c2ccccc12 [Compound 26, 1-(2-((2S,4R)-2-(3-(2-amino-7-chloro-1H-benzo[d]imidazol-6-yl)-2-fluorophenyl-carbamoyl)-4-fluoropyrrolidin-1-yl)-2-oxoethyl)-1H-indazole-3-carboxamide] | < 1000
25 | NC(=O)c1nn(CC(=O)N2C[C@H](F)C[C@H]2C(=O)Nc2cccc(-c3ccc4cn[nH]c4c3)c2F)c2ccccc12 [Compound 28, 1-(2-((2S,4R)-4-fluoro-2-(2-fluoro-3-(1H-indazol-6-yl)phenylcarbamoyl)pyrrolidin-1-yl)-2-oxoethyl)-1H-indazole-3-carboxamide] | < 1000
26 | NC(=O)c1nn(CC(=O)N2C[C@H](F)C[C@H]2C(=O)Nc2cccc(Br)n2)c2cc(Cn3cc(C4CC4)nn3)sc12 [Compound 29, 1-(2-((2S,4R)-2-(6-bromopyridin-2-ylcarbamoyl)-4-fluoropyrrolidin-1-yl)-2-oxoethyl)-5-((4-cyclopropyl-1H-1,2,3-triazol-1-yl)methyl)-1H-thieno[3,2-c]pyrazole-3-carboxamide] | < 1000
